Experimental data: patent EP1691802B1, “METHODS FOR THE AMELIORATION OF ENVIRONMENTAL OXIDANT STRESS AND THE REGULATION OF BENEFICIAL GENES” (The Ester C Company, priority 2003, dated 2005)

Tested on: white blood cells
Design: species or system human
Settings: in vivo, po
Method: Three vitamin C preparations and a placebo were tested to determine white blood cell bioavailability and pharmacokinetics in a double-blind, randomized, crossover study in human subjects. The three vitamin C and placebo compositions were • "Test A": ascorbic acid USP • "Test B": a mineral ascorbate (calcium ascorbate) + vitamin C metabolites (principally calcium threonate), in which the metabolites are produced in situ by a process such as disclosed in US Patent 4,822,816 • "Test C": a mineral ascorbate (calcium ascorbate) + vitamin C metabolites (calcium threonate), manufactured by adding calcium threonate to calcium ascorbate. • "Test D": placebo All three vitamin C compositions were standardized to 1000mg vitamin C equivalent per dose tablets.
A total of 15 subjects (all male between the ages of 21 and 50) were divided into three groups of five and were entered into a four-way crossover design study to minimize inter-subject variability, i.e., in which the subjects act as their own controls. […]
Vitamin C levels of the urine, plasma and white blood cells were determined by HPLC. The areas under the curve (AUC) for the ascorbic acid levels detected in white cells, plasma and urine was determined for each group using the trapezoidal rule (Selby, 1979). The data and the standard deviation was analyzed using repeated-measures analysis of variance ([…]). […]

O=C1O[C@H]([C@@H](O)CO)C(O)=C1O [Test A, ascorbic acid]
levels of white cell vitamin C in smokers: lowest levels
